Experimental data published in ChEMBL document CHEMBL5506024, “Multitarget μ-Opioid Receptor Agonists─Neuropeptide FF Receptor Antagonists Induce Potent Antinociception with Reduced Adverse Side Effects” (J Med Chem, 2024).
Numbered stars: 1 amine (or outer) side, 2 acyl side, 3 side chain; on linkers, the order of the positions; unused ones are H or OH. Square brackets hold non-standard residues; d marks the D form. Peptide text beside a SMILES is read from it. Nva(5-(4-Bn-piperidin-1-yl)) = N[C@@H](CCCN1CCC(Cc2ccccc2)CC1)C(=O)O; X2 = O=C1[C@@H](N[*:1])Cc2ccccc2CN1CCCC(=O)[*:2]; X1 = O=C1[C@@H](N[*:1])Cc2ccccc2CN1CCC(=O)[*:2]; Tic(7-OH) = O=C(O)[C@@H]1Cc2ccc(O)cc2CN1; Dmt = Cc1cc(O)cc(C)c1C[C@H](N)C(=O)O; d(hArg) = N=C(N)NCCCC[C@@H](N)C(=O)O; Nlys = NCCCCNCC(=O)O; βAla = NCCC(=O)O; Sar = CNCC(=O)O

Tests used:
Assay type in all cases: functional, cell-based; call rule not given here
Mu-type opioid receptor [1] = biological target: T1, Mu-type opioid receptor (Homo sapiens, UniProt P35372); assay: Agonist activity at human Rluc8-tagged MOP expressed in HEK293 cells coexpressing eYFP-tagged beta-arrestin-2 assessed as beta-arrestin-2 recruitment incubated for 5 mins by luminometer analysis
Mu-type opioid receptor [2] = biological target: T1, Mu-type opioid receptor; assay: Agonist activity at human MOP expressed in HEK293 cells coexpressing GloSensor-20F assessed as inhibition of forskolin-induced cAMP accumulation relative to control
Mu-type opioid receptor [3] = biological target: T1, Mu-type opioid receptor; assay: Agonist activity at human MOP expressed in HEK293 cells coexpressing GloSensor-20F assessed as inhibition of forskolin-induced cAMP accumulation
Mu-type opioid receptor [4] = biological target: T1, Mu-type opioid receptor; assay: Agonist activity at human Rluc8-tagged MOP expressed in HEK293 cells coexpressing eYFP-tagged beta-arrestin-2 assessed as beta-arrestin-2 recruitment incubated for 5 mins by luminometer analysis relative to control

T1 sequence (P35372 whole entry): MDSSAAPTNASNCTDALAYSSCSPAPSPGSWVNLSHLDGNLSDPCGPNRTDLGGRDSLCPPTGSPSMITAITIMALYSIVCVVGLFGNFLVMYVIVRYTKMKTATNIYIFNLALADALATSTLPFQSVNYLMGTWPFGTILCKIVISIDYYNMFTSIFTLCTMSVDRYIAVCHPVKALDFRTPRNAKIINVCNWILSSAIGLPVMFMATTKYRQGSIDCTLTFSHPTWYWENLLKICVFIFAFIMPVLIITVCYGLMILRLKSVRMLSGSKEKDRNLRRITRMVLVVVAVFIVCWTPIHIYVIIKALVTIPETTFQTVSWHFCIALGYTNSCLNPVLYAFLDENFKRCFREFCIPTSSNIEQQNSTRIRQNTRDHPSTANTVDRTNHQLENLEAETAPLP

Compound	Emax (Mu-type opioid receptor [2]; filed as agonist) [%]	EC50 (Mu-type opioid receptor [1]; read-out: EC50) [nM]	Emax (Mu-type opioid receptor [4]; filed as agonist) [%]	other results
Cc1cc(O)cc(C)c1C[C@H](N)C(=O)N[C@H](CCCCN)C(=O)N[C@H]1Cc2ccccc2CN(CCC(=O)N[C@@H](CCCN2CCC(Cc3ccccc3)CC2)C(=O)N[C@@H](Cc2ccccc2)C(N)=O)C1=O (H-[Dmt][dK][X1][Nva(5-(4-Bn-piperidin-1-yl))]F-NH2)	67	–	–	EC50 (Mu-type opioid receptor [1]; hek293): Not Active; EC50 (Mu-type opioid receptor [3]): 30 nM
Cc1cc(O)cc(C)c1C[C@H](N)C(=O)N[C@H](CCCNC(=N)N)C(=O)N[C@@H](Cc1ccccc1)C(=O)N(C)CCC(=O)N[C@@H](CCCN1CCC(Cc2ccccc2)CC1)C(=O)N[C@@H](Cc1ccccc1)C(N)=O	–	45	–	EC50 (Mu-type opioid receptor [3]): 8.9 nM
Cc1cc(O)cc(C)c1C[C@H](N)C(=O)N[C@H](CCCNC(=N)N)C(=O)N[C@H]1Cc2ccccc2CN(CCCC(=O)N[C@@H](CCCN2CCC(Cc3ccccc3)CC2)C(=O)N[C@@H](Cc2ccccc2)C(N)=O)C1=O (H-[Dmt][dR][X2][Nva(5-(4-Bn-piperidin-1-yl))]F-NH2)	108	–	–	Emax (Mu-type opioid receptor [4]): 31%
Cc1cc(O)cc(C)c1C[C@H](N)C(=O)N[C@H](CCCNC(=N)N)C(=O)N[C@H]1Cc2ccccc2CN(CCCC(=O)N[C@@H](CCCN2CCC(Cc3ccccc3)CC2)C(=O)N[C@@H](Cc2c[nH]c3ccccc23)C(N)=O)C1=O (H-[Dmt][dR][X2][Nva(5-(4-Bn-piperidin-1-yl))]W-NH2)	90	–	–	Emax (Mu-type opioid receptor [4]): 30%
Cc1cc(O)cc(C)c1C[C@@H](N)C(=O)N[C@H](CCCNC(=N)N)C(=O)N[C@@H](Cc1ccccc1)C(=O)N(C)CCC(=O)N[C@@H](CCCN1CCC(Cc2ccccc2)CC1)C(=O)N[C@@H](Cc1ccccc1)C(N)=O	110	–	49	–
Cc1cc(O)cc(C)c1C[C@H](N)C(=O)N[C@H](CCCCNC(=N)N)C(=O)N[C@H]1Cc2ccccc2CN(CCC(=O)N[C@@H](CCCN2CCC(Cc3ccccc3)CC2)C(=O)N[C@@H](Cc2ccccc2)C(N)=O)C1=O (H-[Dmt][d(hArg)][X1][Nva(5-(4-Bn-piperidin-1-yl))]F-NH2)	–	–	–	EC50 (Mu-type opioid receptor [1]; hek293): Not Active; Emax (Mu-type opioid receptor [2]): 39%; EC50 (Mu-type opioid receptor [3]): 24 nM
Cc1cc(O)cc(C)c1C[C@H](N)C(=O)N[C@H](CCCNC(=N)N)C(=O)N[C@H]1Cc2ccccc2CN(CCCC(=O)N[C@@H](CCCN2CCC(Cc3ccccc3)CC2)C(=O)N[C@H](C(N)=O)C(C)C)C1=O (H-[Dmt][dR][X2][Nva(5-(4-Bn-piperidin-1-yl))]V-NH2)	101	–	53	–
Cc1cc(O)cc(C)c1C[C@H](N)C(=O)N[C@H](CCCNC(=N)N)C(=O)N[C@@H](Cc1ccccc1)C(=O)NCCC(=O)N[C@@H](CCCN1CCC(Cc2ccccc2)CC1)C(=O)N[C@@H](Cc1ccccc1)C(N)=O (H-[Dmt][dR]F[βAla][Nva(5-(4-Bn-piperidin-1-yl))]F-NH2)	101	–	53	–
Cc1cc(O)cc(C)c1C[C@H](N)C(=O)N[C@H](CCCNC(=N)N)C(=O)N[C@H]1Cc2ccccc2CN(CC(=O)N[C@@H](CCCN2CCC(Cc3ccccc3)CC2)C(=O)N[C@@H](Cc2ccccc2)C(N)=O)C1=O	76	704	–	Emax (Mu-type opioid receptor [4]): 18%; EC50 (Mu-type opioid receptor [3]): 11.3 nM
Cc1cc(O)cc(C)c1C[C@H](N)C(=O)N[C@H](CCCNC(=N)N)C(=O)N[C@H]1Cc2ccccc2CN(CCC(=O)N[C@@H](CCCN2CCC(Cc3ccccc3)CC2)C(=O)N[C@@H](Cc2c[nH]c3ccccc23)C(N)=O)C1=O (H-[Dmt][dR][X1][Nva(5-(4-Bn-piperidin-1-yl))]W-NH2)	81	–	42	–
Cc1cc(O)cc(C)c1C[C@H](N)C(=O)N[C@H](CCCNC(=N)N)C(=O)N[C@H]1Cc2ccccc2CN(CCC(=O)N[C@@H](CCCN2CCC(Cc3ccccc3)CC2)C(=O)N[C@@H](Cc2ccc(O)cc2)C(N)=O)C1=O (H-[Dmt][dR][X1][Nva(5-(4-Bn-piperidin-1-yl))]Y-NH2)	88	–	64	–
Cc1cc(O)cc(C)c1C[C@H](N)C(=O)N[C@H](CCCNC(=N)N)C(=O)N[C@@H](Cc1ccccc1)C(=O)N(C)CC(=O)N[C@@H](CCCN1CCC(Cc2ccccc2)CC1)C(=O)N[C@H](C(N)=O)C(C)C (H-[Dmt][dR]F[Sar][Nva(5-(4-Bn-piperidin-1-yl))]V-NH2)	110	59	116	–
Cc1cc(O)cc(C)c1C[C@H](N)C(=O)N[C@H](CCCN1CCC(Cc2ccccc2)CC1)C(=O)N[C@H]1Cc2ccccc2CN(CCC(=O)N[C@@H](CCCN2CCC(Cc3ccccc3)CC2)C(=O)N[C@@H](Cc2ccccc2)C(N)=O)C1=O	–	–	–	Emax (Mu-type opioid receptor [2]): 35%
Cc1cc(O)cc(C)c1C[C@H](N)C(=O)N[C@H](CCCNC(=N)N)C(=O)N[C@@H](Cc1ccccc1)C(=O)N(C)CC(=O)N[C@@H](CCCN1CCC(Cc2ccccc2)CC1)C(=O)N[C@@H](Cc1ccccc1)C(N)=O (H-[Dmt][dR]F[Sar][Nva(5-(4-Bn-piperidin-1-yl))]F-NH2)	97	53	96	–
Cc1cc(O)cc(C)c1C[C@H](N)C(=O)N[C@H](CCCNC(=N)N)C(=O)N[C@H]1Cc2ccccc2CN(CCC(=O)N[C@@H](CCCN2CCC(Cc3ccccc3)CC2)C(=O)N[C@@H](Cc2ccccc2)C(=O)NCCC(N)=O)C1=O (H-[Dmt][dR][X1][Nva(5-(4-Bn-piperidin-1-yl))]F[βAla]-NH2)	95	–	–	Emax (Mu-type opioid receptor [4]): 31%
Cc1cc(O)cc(C)c1C[C@H](N)C(=O)N[C@H](CCCNC(=N)N)C(=O)N[C@H]1Cc2ccccc2CN(CCC(=O)N[C@@H](CCCN2CCC(Cc3ccccc3)CC2)C(=O)N[C@@H](CC(C)C)C(N)=O)C1=O (H-[Dmt][dR][X1][Nva(5-(4-Bn-piperidin-1-yl))]L-NH2)	70	–	–	Emax (Mu-type opioid receptor [4]): 38%
Cc1cc(O)cc(C)c1C[C@H](N)C(=O)N(CCCCN)CC(=O)N[C@H]1Cc2ccccc2CN(CCC(=O)N[C@@H](CCCN2CCC(Cc3ccccc3)CC2)C(=O)N[C@@H](Cc2ccccc2)C(N)=O)C1=O (H-[Dmt][Nlys][X1][Nva(5-(4-Bn-piperidin-1-yl))]F-NH2)	–	–	–	EC50 (Mu-type opioid receptor [1]; hek293): Not Active; Emax (Mu-type opioid receptor [2]): 15%
Cc1cc(O)cc(C)c1C[C@H](N)C(=O)N[C@H](CCCNC(=N)N)C(=O)N[C@H]1Cc2c(ccc3ccccc23)CN(CCC(=O)N[C@@H](CCCN2CCC(Cc3ccccc3)CC2)C(=O)N[C@@H](Cc2ccccc2)C(N)=O)C1=O	111	56	60	EC50 (Mu-type opioid receptor [3]): 5.3 nM
Cc1cc(O)cc(C)c1C[C@H](N)C(=O)N[C@H](CCCNC(=N)N)C(=O)N[C@H]1Cc2ccccc2CN(CCC(=O)N[C@H](CCCN2CCC(Cc3ccccc3)CC2)C(=O)N[C@@H](Cc2ccccc2)C(N)=O)C1=O	95	178	76	EC50 (Mu-type opioid receptor [3]): 14 nM
Cc1cc(O)cc(C)c1C[C@H](N)C(=O)N[C@H](CCCNC(=N)N)C(=O)N[C@H](Cc1ccccc1)C(=O)N(C)CCC(=O)N[C@@H](CCCN1CCC(Cc2ccccc2)CC1)C(=O)N[C@@H](Cc1ccccc1)C(N)=O	65	–	–	EC50 (Mu-type opioid receptor [3]; hek293): 180 nM
Cc1cc(O)cc(C)c1C[C@H](N)C(=O)N[C@H](CCCNC(=N)N)C(=O)N[C@H]1Cc2ccccc2CN(CCC(=O)N[C@@H](CCCN2CCC(Cc3ccccc3)CC2)C(=O)N[C@H](Cc2ccccc2)C(N)=O)C1=O	109	–	59	–
CC[C@H](C)[C@H](NC(=O)[C@H](CCCN1CCC(Cc2ccccc2)CC1)NC(=O)CCN1Cc2ccccc2C[C@H](NC(=O)[C@@H](CCCNC(=N)N)NC(=O)[C@@H](N)Cc2c(C)cc(O)cc2C)C1=O)C(N)=O (H-[Dmt][dR][X1][Nva(5-(4-Bn-piperidin-1-yl))]I-NH2)	110	–	49	–
N=C(N)NCCC[C@@H](NC(=O)[C@@H]1Cc2ccc(O)cc2CN1)C(=O)N[C@H]1Cc2ccccc2CN(CCC(=O)N[C@@H](CCCN2CCC(Cc3ccccc3)CC2)C(=O)N[C@@H](Cc2ccccc2)C(N)=O)C1=O (H-[Tic(7-OH)][dR][X1][Nva(5-(4-Bn-piperidin-1-yl))]F-NH2)	46	1340	–	Emax (Mu-type opioid receptor [4]): 33%
Cc1cc(O)cc(C)c1C[C@H](N)C(=O)N[C@H](CCCNC(=N)N)C(=O)N[C@H]1Cc2ccccc2CN(CCC(=O)N[C@@H](CCCN2CCc3ccccc3C2)C(=O)N[C@@H](Cc2ccccc2)C(N)=O)C1=O	98	25	60	–
Cc1cc(O)cc(C)c1C[C@H](N)C(=O)N[C@H](CCCNC(=N)N)C(=O)N[C@@H](Cc1ccccc1)C(=O)N(C)[C@H](C)C(=O)N[C@@H](CCCN1CCC(Cc2ccccc2)CC1)C(=O)N[C@@H](Cc1ccccc1)C(N)=O	111	154	83	–
Cc1cc(O)cc(C)c1C[C@H](N)C(=O)N[C@H](CCCNC(=N)N)C(=O)N[C@@H](Cc1ccccc1)C(=O)N(C)[C@@H](C)C(=O)N[C@@H](CCCN1CCC(Cc2ccccc2)CC1)C(=O)N[C@@H](Cc1ccccc1)C(N)=O	99	92	87	EC50 (Mu-type opioid receptor [3]): 17 nM
Cc1cc(O)cc(C)c1C[C@H](N)C(=O)N[C@H](CCCNC(=N)N)C(=O)N[C@H]1Cc2ccccc2CN(CCC(=O)N[C@@H](CCCN2CCC(Cc3ccccc3)CC2)C(=O)N[C@H](C(N)=O)C(C)C)C1=O (H-[Dmt][dR][X1][Nva(5-(4-Bn-piperidin-1-yl))]V-NH2)	124	–	52	–
Cc1cc(O)cc(C)c1C[C@H](N)C(=O)N1CCC[C@@H]1C(=O)N[C@H]1Cc2ccccc2CN(CC(=O)N[C@@H](CCCN2CCC(Cc3ccccc3)CC2)C(=O)N[C@@H](Cc2ccccc2)C(N)=O)C1=O	85	162	–	Emax (Mu-type opioid receptor [4]): 27%; EC50 (Mu-type opioid receptor [3]): 21 nM
